# Legend:
# hPPARα = biological target: T1, hPPARα (Homo sapiens, UniProt Q07869); assay: Gal4-hPPARα chimera transactivation in COS-7 cells (luciferase); assay type: cell-based; details: induction factor standardised to an internal reference, read-out: % hGal4-PPAR transactivation (10 μM) alpha
# T1 construct: fragments of DNA amplified by PCR corresponding to the DEF domains of the human PPARα, PPARγ PPARδ nuclear receptors; expressed in transfected cells; host or cells: COS-7 (monkey kidney fibroblast line)
# T1 sequence (Q07869 239-466 limits assumed): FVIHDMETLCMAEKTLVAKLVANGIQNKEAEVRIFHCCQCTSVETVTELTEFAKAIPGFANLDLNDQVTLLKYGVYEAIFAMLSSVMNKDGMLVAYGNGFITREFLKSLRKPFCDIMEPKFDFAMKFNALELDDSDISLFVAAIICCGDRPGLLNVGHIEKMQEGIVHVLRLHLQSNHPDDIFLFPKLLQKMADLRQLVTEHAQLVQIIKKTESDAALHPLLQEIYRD
# Summary of the method: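 COS-7 cells transiently transfected with Gal4-DBD/human PPAR DEF-domain chimeras plus Gal4(RE)_TkpGL3 luciferase reporter (1/10 ratio), then exposed 24 h serum-free to compound at 10 μM. Luciferase induction factor over control, normalised to an internal reference per isoform, expressed as percent activation.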
# Male Sprague-Dawley rats = assay: Glycemia and insulinemia after oral administration in fasted rats; assay type: in vivo, rat; details: oral, fasted rat
# Text: In normal animals (as in man), the consequence of the administration of insulinotropic compounds is a significant increase in the plasmatic level of insulin. This induced hyperinsulinemia induces a reduction in glycemia. This example studies the evolution of glycemia and of insulinemia following oral administration of the inventive compounds in rats: the insulinotropic action of the compounds in vivo should induce a significant decrease of glycemia.
# Male Sprague-Dawley rats (300-320 g) (CERJ—Le Genest St Isle-France) were used in order to carry out this experiment. The rats were fed with a standard diet of granular material; they had free access to food and drink and were kept in individual, ventilated cages in a 12 hr/12 hr light/dark rhythm. The animals were deprived of food for 16 hours prior to the experiment.
# The compound was suspended in an aqueous carboxymethylcellulose solution (Sigma C4888) at 1% containing 0.1% Tween80 (Sigma P8074). The animals of the control group received the vehicle alone. The treated animals received a single administration of the compound (the suspension was administered by gavage at the rate of 10 ml/kg). Each group was made up of 11 animals. A 1st blood sample was taken by puncturing the retro-orbital sinus of the animals under volatile isoflurane anaesthesia: this sample makes up the initial time of the experiment. The substance or the vehicle were immediately administered to the animals by gavage, and blood samples were taken over time.
# The animals' glycemia was measured in real time using a glucometer (Glucotrend2-Roche Diagnostic-France). The insulinemias were measured using an ELISA kit (Insulin Elisa Kit—Crystal Chem. USA). The method used was of the ELISA type: plasmatic insulin was specifically bound to anti-insulin monoclonal antibodies immobilised on the microtitration plate; simultaneously, an anti-insulin polyclonal guinea pig antibody was added to the reaction. The revelation of the reaction was guaranteed by an antibody coupled to peroxidase. These antibodies bind specifically to the guinea pig's immunoglobulins. The production of oxidised chromogen causes an increase in absorbance in proportion to the quantity of insulin present in the sample.
structure (smiles),measurement,setting,value
"CCCCC(NC(=O)Cc1ccc(OC(C)(C)C(=O)NS(C)(=O)=O)cc1)c1ccccc1N1CCCCC1 (stereo not drawn) [Compound 52, N-[methylsulfonyl]-2-[4-[1-(1-(2-(1-piperidinyl)phenyl)pentyl)aminocarbonylmethyl]phenoxy]-2-methylpropanamide]",activation at 10 µM,hPPARα,42%
same,decrease in glycemia between T=0 and T=120 min,Male Sprague-Dawley rats; 50 mpk,no measurable effect
same,decrease in glycemia between T=0 and T=120 min,Male Sprague-Dawley rats; 500 mpk,19%
